Measured values reported in patent US12441706B2, “Protein degradation agent compound preparation method and application” (SHANGHAI JEMINCARE PHARMACEUTICALS CO., LTD., priority 2019, dated 2025).

What was measured:
LNcap FGC cells = test: Inhibition of proliferation of LNcap FGC cells (Cell Titer Glo, 6 days); format: cell-based; details: Homo sapiens, LNCaP, 144 h
Description: Tumor cell line LNcap FGC (ATCC catalog number CRL-1740) was cultured in RPMI 1640 (Gibco catalog number 11875-093) and DMEM (Gibco catalog number. 11965-092) medium containing 10% FBS (Gibco catalog number 10099-141C), respectively.
(§1) LNcap FGC cells were inoculated in a 384-well plate (Perkin Elmer catalog number 6007460) at a cell density of 400 cells/well in a volume of 20 μL/well and incubated overnight in a carbon dioxide incubator (Thermo). The prepared compound solutions of different concentrations were added in a volume of 5 μL/well. The corresponding vehicle control was set at the same time. After being cultured in the incubator for 6 days, the cell plate and the contents were equilibrated to room temperature, and 25 μL of Cell Titer Glor (Promega catalog number G7573) was added to each well, shook and mixed well, incubated in dark for 10-30 minutes, and the signal values were detected with Envision microplate reader (PerkinElmer).
(§2) The percentage inhibition rate of compound-treated wells was calculated from the vehicle control wells on the plate, and the percentage inhibition rate data corresponding to different concentrations were fitted by GraphPad prism, and the IC50 values were calculated by 4-parameter nonlinear logic formula.

androgen receptor = target: T1, androgen receptor (Homo sapiens, UniProt P10275); test: In-Cell-Western determination of androgen receptor degradation in VCaP cells; format: cell-based; details: 24 hours treatment
T1 construct: endogenous in cells; host or cells: VCaP cells
T1 sequence (P10275 1-920): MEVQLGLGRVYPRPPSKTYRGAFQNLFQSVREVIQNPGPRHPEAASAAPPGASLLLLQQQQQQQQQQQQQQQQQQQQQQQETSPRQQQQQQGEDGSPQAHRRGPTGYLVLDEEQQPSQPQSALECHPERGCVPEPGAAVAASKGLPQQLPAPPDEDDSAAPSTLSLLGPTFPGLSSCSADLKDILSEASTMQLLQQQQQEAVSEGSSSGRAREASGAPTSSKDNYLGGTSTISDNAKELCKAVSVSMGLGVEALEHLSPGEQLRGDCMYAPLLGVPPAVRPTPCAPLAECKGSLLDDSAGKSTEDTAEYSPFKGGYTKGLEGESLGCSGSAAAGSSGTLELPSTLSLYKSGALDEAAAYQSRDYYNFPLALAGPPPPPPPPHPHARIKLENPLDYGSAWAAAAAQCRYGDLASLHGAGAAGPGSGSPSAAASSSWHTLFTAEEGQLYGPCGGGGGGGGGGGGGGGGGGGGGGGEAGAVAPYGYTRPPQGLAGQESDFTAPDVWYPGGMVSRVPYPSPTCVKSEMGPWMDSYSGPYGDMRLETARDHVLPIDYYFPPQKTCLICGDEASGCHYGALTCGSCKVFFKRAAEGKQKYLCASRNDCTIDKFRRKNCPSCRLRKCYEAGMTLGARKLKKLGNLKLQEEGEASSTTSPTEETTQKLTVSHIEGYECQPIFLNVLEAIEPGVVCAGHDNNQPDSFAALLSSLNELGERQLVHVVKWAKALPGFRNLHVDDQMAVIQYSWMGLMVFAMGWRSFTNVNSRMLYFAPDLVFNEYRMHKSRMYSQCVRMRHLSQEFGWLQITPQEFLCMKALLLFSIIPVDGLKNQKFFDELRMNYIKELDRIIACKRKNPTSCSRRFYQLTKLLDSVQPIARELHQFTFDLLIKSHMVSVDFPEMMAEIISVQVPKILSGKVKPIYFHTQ
Description: The determination evaluated the properties of the compounds in Vcap cells. Intracellular androgen receptor was determined by In-Cell-Western according to the determination steps described below.
In poly-D-Lysin pretreated 96-well cell culture plate (Corning 3599), Vcap cells were divided into […] volume, and inoculated with 50,000 cells/well in Vcap cell assay medium [DMEM containing phenol red (Gibco catalog number: 11995065); fetal bovine serum FBS (Gibco catalog number: 10099141C)]. Cells were cultured for at least two days.
1. First treated cells with compound. Compounds were gradient diluted with DMSO and cell culture medium, so that DMSO contained in cell culture plates was diluted to 0.5% —polypropylene plates were used according to the following protocol:
(1)(i) 200× stock plate in DMSO was prepared; (ii) 10 mM stock solution was diluted 1:4 with DMSO (10 μL stock solution+40 μL DMSO)=2000 μM, then entered into row 2; (iii) 1:4 (10 μL protac+40 μL DMSO) gradient dilution was performed in row 2 to row 9, and row 1 was reserved for 2000 μM reference compound and row 10 for DMSO. (iv) A total of 8 concentrations (final concentrations on the 200×plate were 2000 μM, 400 μM, 80 μM, etc.). (i) 3×stock solution in medium was prepared; (ii) 3 μL of 200× stock solution was transferred to 197 μL of culture medium (using 12-channel pipette, from line 1 to line 10), i.e. 3× stock solution plate. (iii) The stock solution plate was mixed evenly. (3) (i) The culture medium of Vcap cells was replaced with fresh culture medium, 100 μL volume culture medium. (ii) The well-mixed 3×stock solution was transferred to the cell culture plate (using 12-channel pipette, and 50 μL of stock solution was transferred from line 1 to line 10). (iii) Cells were cultured for 24 hours.
2. The expression level of intracellular androgen receptor after compound treatment was […] and determined according to the following method.
(1)(i) Equal volume of 8% paraformaldehyde was added to the cell culture plate for cell fixation. The fixing solution in the cell plate was discarded and washed three times with PBS. (ii) Triton solution (1:1000 dilution of the stock solution) was prepared. The solution in the cell plate was discarded, and 200 μL of Triton diluent was added into each well. (iii) 2×blocking solution (1:4 dilution of 10×blocking stock solution) was prepared. The solution in the cell plate was discarded, and 100 μL of 2×blocking solution was added into each well. (iv) Primary antibody solution (Androgen receptor Rabbbit mAb, Cell Signaling Technology catalog number: 5153; 1:1000 dilution) was prepared. The solution in the cell plate was discarded, 100 μL volume of primary antibody diluent was added to each well, and incubated at 4° C. overnight. (v) The primary antibody solution was discarded and the cell plate was washed with 1×Wash buffer. (vi) Secondary antibody solution (GOAT Antirabbit IgG (H+L), HRP, Thermo catalog number: 31460; 1:5000 dilution) was prepared, and 100 μL volume of secondary antibody dilution was added to each well for incubation. (vii) The secondary antibody solution in the cell plate was discarded and the cell plate was washed with 1× Wash buffer. (viii) TMB chromogenic solution (BD catalog number: 550534) was prepared, and 100 μL chromogenic solution was added into each well. (ix) 50 μL volume of stop solution (BD catalog number: 550534) was added to each well. (x) The absorption values at OD 450 nm and 570 nm were read though EnVision. (2)(i) Normalized analysis was performed on the number of cells in each well. The solution in the cell plate was discarded, and washed with wash buffer for three times. (ii) Janus dilution (1:3 dilution) was prepared. (iii) 50 μL volume diluent was added to each well for incubation. (iv) The solution in the plate was discarded and washed with deionized water. […]

VCap cells = test: Inhibition of proliferation of VCap cells (Cell Titer Glo, 6 days); format: cell-based; details: Homo sapiens, VCaP, 144 h
Description: Tumor cell line VCap FGC (ATCC catalog number CRL-2876) was cultured in DMEM (Gibco catalog number 11965-092) medium containing 10% FBS (Gibco catalog number 10099-141C), respectively. During the determination, Vcap cells were replaced with DMEM medium containing 5% FBS and 0.1 nM R1881 (Sigma catalog number R0908).
as §1, with “Vcap” for “LNcap”, “1200” for “400”, “shake” for “shook”, “mix” for “mixed”, “though” for “with”
as §2, with “from” for “from the”

[1] = test system: human prostate cancer VCaP cell subcutaneous xenograft tumor; test: In vivo pharmacodynamic study, human prostate cancer VCaP cell subcutaneous xenograft tumor CB17 SCID mouse model; details: castrated CB17 SCID mice, 24th day after administration
Description: Experimental animal: male mice of CB17 SCID strain, aged 6-8 weeks, weighing 18-22 grams, supplier: Beijing Weitong Lihua Laboratory Animal Technology Co., Ltd. Shanghai Branch, animal certificate number: 20170011005577. Animals were reared in the experimental environment for 7 days after arrival and the experiment was started.
Experimental method: Human prostate cancer cell VCaP cells (ATCC-CRL-2876) were cultured in vitro in monolayer, and the culture conditions were DMEM medium with 20% fetal bovine serum, 100 U/mL penicillin and 100 μg/mL streptomycin, cultured in a 5% CO2 incubator at 37° C. Conventional digestion with trypsin-EDTA was performed twice a week for passage. When the cell saturation was 80%-90% and the number reached the requirement, the cells were collected, counted, and inoculated. 0.2 mL (10× 10^6 cells+Matrigel) VCaP cells were subcutaneously inoculated into the left upper limb of each mouse, and castration was performed 33 days after cell inoculation. When the average tumor volume reached 119 mm^3, the drugs were administered in groups, and the doses of compound 14 were set to four groups: 1 mg/kg, 3 mg/kg, 10 mg/kg and 30 mg/kg.
Daily observation of experimental animals: the health status and death of animals were monitored every day. Routine examinations included observing the effects of tumor growth and drug treatment on the daily behavior of animals, such as behavioral activities, food and water intake (visual observation only), and weight changes (body weight measured three times a week), physical signs or other abnormal conditions.
Tumor measurements and experimental indicators: Experimental indicators were to examine whether tumor growth was inhibited, delayed or cured. Tumor diameters were measured with vernier calipers three times a week.
The calculation formula of tumor volume is: V=0.5a×b2, where a and b represented the long diameter and short diameter of the tumor, respectively. The antitumor effect of the compound was evaluated by TGI (%) or relative tumor proliferation rate T/C (%). TGI (%), reflecting the tumor growth inhibition rate. Calculation of TGI (%): TGI (%)=[1−(average tumor volume at the end of administration of a certain treatment group−average tumor volume at the beginning of administration of the treatment group)/(average tumor volume at the end of treatment in the vehicle control group−average tumor volume at the beginning of treatment in the vehicle control group)]×100%. Relative tumor proliferation rate T/C (%): the calculation formula is as follows: T/C %=TRTV/CRTV×100% (TRTV: RTV in the treatment group; CRTV: RTV in the negative control group). The relative tumor volume (RTV) was calculated according to the results of tumor measurement, and the formula is RTV=Vt/V0, where V0 is the average tumor volume measured at the time of group administration (i.e. d0), and Vt is the average tumor volume at a certain measurement, and TRTV and CRTV were taken on the same day. After the experiment, the tumor weight would be detected, and the percentage of T/Cweight would be calculated. Tweight and Cweight represent the tumor weight of the administration group and the vehicle control group, respectively.
Statistical analysis: Statistical analysis included the mean and standard error (SEM) of tumor volume at each time point for each group. […] T-test was used for comparison between two groups, and one-way ANOVA was used for comparison between three or more groups. […]

[2] = In vivo pharmacokinetics in mice, intravenous injection and oral administration; set-up: species or system mouse; details: male CD1 mice
Description: In this experimental example, in vivo pharmacokinetics in mice were evaluated by intravenous injection and oral administration.
Experimental methods and conditions: Male CD1 mice, aged 6-8 weeks, all animals were free access to food and water, and were given a single dose of the compound to be tested at 1 mg/Kg by intravenous injection (solvent 5% DMSO/15% Solutol/80% Saline), at 5 min, 15 min, 30 min, 1 hr, 2 hr, 4 hr, 8 hr, 24 hr, 48 h after drug administration, or oral gavage administration of 10 mg/kg (solvent 5% DMSO/10% Solutol/85% Saline), at 15 min, 30 min, 1 hr, 2 hr, 4 hr, 6 h, 8 hr, 24 hr, 48 h after administration, blood was collected from the orbit, no less than 50 μL for each sample, heparin sodium was used for anticoagulation, and then placed on ice after collection, and centrifuged within 1 hour to separate the plasma for testing. The plasma concentration of the drug was detected by liquid tandem mass spectrometry (LC/MS/MS), and the pharmacokinetic parameters were calculated by Phoenix WinNonlin software.

[3] = mouse, intravenous administration 1 mg/kg, plasma
[4] = mouse, oral administration 10 mg/kg, plasma

CC1(C)C(=O)N(c2ccc(C#N)c(Cl)c2)c2ccc(-c3ccc(N4CC(CN5CCN(c6ccc7c(c6)C(=O)N(C6CCC(=O)NC6=O)C7=O)CC5)C4)nc3)cc21 (stereo not drawn) [Compound 9]
Emax (LNcap FGC cells): 100%
IC50 (LNcap FGC cells): 35.5 nM
DC50 (androgen receptor; concentration for half of the maximal degradation of AR in VCaP cells): 121 nM
Dmax (androgen receptor; maximum degradation of AR in VCaP cells): 56%
Emax (VCap cells): 97%
IC50 (VCap cells): 61 nM

CC1(C)[C@H](NC(=O)c2ccc(N3CCC(CN4CCN(c5ccc6c(c5)C(=O)N(C5CCC(=O)NC5=O)C6=O)CC4)CC3)cc2)C(C)(C)[C@H]1Oc1ccc(C#N)c(Cl)c1 (stereo partly drawn) [Reference substance 1, reference compound]
tumor growth inhibition rate (TGI) ([1]; dose 10 mpk): 60%
F ([2]; oral administration 10 mg/kg vs intravenous 1 mg/kg): 99.0%
AUC(0-inf) [2, 3]: 5360 ng·h/mL
clearance [2, 3]: 3.11 mL/min/kg
half-life [2, 3]: 804 min
AUC(0-inf) [2, 4]: 53000 ng·h/mL
Cmax [2, 4]: 1420 ng/mL
half-life [2, 4]: 864 min

CNC(=O)c1ccc(N2C(=S)N(c3ccc(C#N)c(C(F)(F)F)c3)C(=O)C2(C)C)cc1F [enzalutamide, reference compound]
tumor growth inhibition rate (TGI) [1]: 45%
